From ChEMBL document CHEMBL1135781 (J Med Chem, 2002)

Target: Melatonin receptor (Homo sapiens, UniProt P48039+P49286)
Test: Ability to inhibit 2-[125I]iodomelatonin specific binding to human melatonin receptor type 1A (MT1) expressed in CHO cells.
Type: cell-based

| Compound | Ki [nM] |
| --- | --- |
| COc1ccc2c(c1)C(CCNC(=O)C(F)(F)F)=C(c1ccccc1)C2 | 0.00602 |
| COc1ccc2c(c1)C(CCNC(C)=O)CC2 (stereo not drawn) | 0.131 |
| COc1ccc2c(c1)[C@@H](CCNC(C)=O)CC2 | 10.6 |
| COc1ccc2c(c1)C(CCNC(=O)C(F)(F)F)C(c1ccccc1)C2 (stereo not drawn) | 1.6 |
| COc1ccc2c(c1)[C@H](CCNC(C)=O)CC2 | 0.0733 |

Further lines, results first:

| Ki [nM] | Compound |
| --- | --- |
| 43.7 | CCCC(=O)NCC[C@H]1CCc2ccc(OC)cc21 |
| 0.0553 | CCCC(=O)NCCC1CCc2ccc(OC)cc21 (stereo not drawn) |
| 0.0321 | CCCC(=O)NCC[C@@H]1CCc2ccc(OC)cc21 |
